{
  "source": "patent US20040180812A1",
  "about": "“Methods of treating and preventing proliferative disease” (Technology Center, priority 2002, published 2004)",
  "key": {"U-87 glioblastoma cells [1]": {"tested_on": "U-87 glioblastoma cells", "test": "In-vitro determination of proliferation (Coulter counter)", "format": "cell-based, human", "protocol": "(§1) U-87 glioblastoma cells and A-549 non-small cell lung cancer cells (American Type Culture Collection) were maintained in alpha MEM (Sigma) with 10% fetal bovine serum (Atlanta Biologicals). Tumor cell lines were expanded as a monolayer culture by serial passage on tissue culture plates in tumor media (alpha MEM with 10% fetal bovine serum).\n(§2) The cell doubling time was determined for both U-87 and A-549 tumor cells. A total of 1×10^6 Cells from resting culture were seeded in 50 mm flasks with medium and allowed to adhere for approximately Three hours. Clopidogrel and Aggrenox™ were then added in concentrations of 25, 50, or 100 μM. After further incubation for four hours, controls and treated dishes were trypsinized and counted in a Coulter Counter ZM. This count served as the starting count for proliferation and confirmed similar cell adhesion in each series. Cells were then counted every 24 hours for a total of 96 hours."}, "[2]": {"tested_on": "human U87 gliobastoma tumor xenografts", "protocol": "Glioblastoma cell line U-87 (ATCC) was cultured in 150 cm^2 polystyrene flasks (Fisher cat. no. 355001) in Alpha MEM media (Cellgro® cat. no. 15-012-CV) supplemented with 10% FBS, 1× non essential amino acids (Cellgro® cat. no. 25-025-Cl), 0.1% glucose (Sigma® cat. no. G8644), 2 mM L-glutamine (Gibco BRL® cat. no. 25030-081) and 0.2% sodium bicarbonate (Cellgro® cat. no. 25-035-Cl) to sub-confluence (80%). Prior to cell dissociation, the culture was washed once with 1×PBS (Bio Whittaker® cat. no. 16-006Y) and dissociated with trypsin free Cellstripper™ (Cellgro® cat. no. 25-056-Cl). Suspended cells were counted using the model Z1 Coulter® particle counter.\nMale mice (NCR-NU-M, Taconic®), 3-5 weeks old, were anesthetized with 0.2 mls Nembutal® (10 mg/ml in sterile water) subcutaneous in the back of the neck. Once anesthetized, each mouse was injected subcutaneous with 5×10^5 cells/0.2 ml in the right hind flank. Tumors were allowed to grow to 60 mm^3 prior to treatment. Tumor volume was calculated by the following formula from orthogonal measurements using Fisher Scientific® electronic digital calipers. [formula]\nTumors were allowed to grow to a final volume of 2000 mm^3 where upon the treatment was terminated and the mice were sacrificed using a CO2 gas chamber.\nTreatment groups were evaluated for tumor growth delay. A 60 mg/kg/day solution of Plavix® (clopidogrel bisulfate) was prepared by crushing and dissolving 75 mg tablets in water (pH 1.0). The solute was filtered through a Nalgene® filtration unit (cat. no. 126-0020) and the pH raised to 1.78. Mice were gavaged daily with 0.2 ml solution of Plavix® and vehicle controls were gavaged daily with 0.2 ml acidified water pH 1.78.\nPrior to X-ray irradiation, mice were anesthetized with […] Ketamine HCl (Ketaset III®, Fort Dodge®) and […] Acepromazine Maleate (Phoenix pharmaceutical, Inc.) by subcutaneous injection in the back to the neck. Tumors on the right hind leg were exposed to 7.5 Gy three times on alternate days for one week using a Pantek X-ray irradiator."}, "U-87 glioblastoma cells [3]": {"tested_on": "U-87 glioblastoma cells", "test": "Clonogenic assay", "format": "cell-based, human", "details": "25, 50, 100 μM, four hours exposure", "protocol": "as §1\n(§3) The effect of clopidogrel and Aggrenox™ on U-87 and A-549 survival was determined by preparing single cell suspensions from each cell culture. The cells were subjected to three concentrations of each drug (25, 50, or 100 μM) for four hours in medium. The suspensions were serially diluted with medium. The cells were then seeded in triplicate in 50 mm flasks. After 6 to 14 days of incubation, the cultures were stained with crystal violet and counted."}, "[4]": {"tested_on": "A-549 non-small cell lung cancer cells", "test": "In-vitro determination of proliferation (Coulter counter)", "format": "cell-based", "protocol": "as §1, §2"}, "U-87 tumor": {"tested_on": "U-87 tumor", "protocol": "In order to evaluate the effect of clopidogrel on U-87 tumor growth rate, U-87 cell suspension was injected subcutaneously into the right hind limb (5×10^5 cells in 50 μl PBS) of athymic NCR NUM mice (Taconic Farms). The clopidogrel was added to the drinking water in concentrations of 0.135 (low), 0.180 (intermediate) or 0.225 mg/ml (high). This was equivalent to an oral dose of approximately 15, 20, or 25 mg/kg/day. Mice were not pretreated prior to tumor implantation. The mice were randomized to five groups (control, low, intermediate and high concentration and non-solubilized drug) with five mice per group.\nU-87 tumors were allowed to grow for approximately 10-14 days until reaching an approximate volume of 40-85 mm^3, before treatment. Tumor volume was determined daily by direct measurement with calipers and calculated by the formula [(smallest diameter^2×widest diameter)/2]. Daily weights were obtained.\nPolynomial regression lines were fit to the data for each individual mouse for 20-24 days. Means were taken at two-day intervals for mice in each group.\nU-87 cells were inoculated into the right hind limb of athymic NCR NUM mice. […] U-87 tumors were allowed to grow for approximately 10-14 days until reaching an approximate volume of 40-85 mm^3, before treatment. Clopidogrel was added to the drinking water in concentrations of 0.135 (low), 0.180 (intermediate) or 0.225 mg/ml (high). This was equivalent to an oral dose of approximately 15, 20, or 25 mg/kg/day. Tumor dimensions and animal weights were taken daily."}, "[5]": {"tested_on": "A-549 non-small cell lung cancer cells", "test": "Clonogenic assay", "format": "cell-based", "details": "25, 50, 100 μM, four hours exposure", "protocol": "as §1, §3"}, "[6]": {"details": "highest concentration 100 μM, counted every 24 h for 96 h"}},
  "note": "Where two headings read alike, the source gives them in different places.",
  "data": [
    {"compound": "COC(=O)[C@H](c1ccccc1Cl)N1CCc2sccc2C1", "note": "[clopidogrel, clopidogrel bisulfate]", "values": [
      {"measurement": "proliferation of U-87 cells", "setting": "U-87 glioblastoma cells [1]; [6]", "value": "considerably inhibited"},
      {"measurement": "cell proliferation (U-87)", "setting": "U-87 glioblastoma cells [1]; lowest concentration (25 μM)", "value": "did not significantly affect cell proliferation"},
      {"measurement": "Tumor growth Delay (Experiment 1)", "setting": "[2]; Plavix alone", "value": 5, "unit": "days"},
      {"measurement": "Tumor growth Delay (Experiment 2)", "setting": "[2]; Plavix alone", "value": 5, "unit": "days"},
      {"measurement": "tumor growth delay (TGD)", "setting": "[2]; Plavix alone, 60 mg/kg/day gavage", "value": 5, "unit": "days"},
      {"measurement": "Tumor growth Delay (Experiment 2)", "setting": "[2]; Radiation plus Plavix", "value": 16, "unit": "days"},
      {"measurement": "tumor growth delay (TGD)", "setting": "[2]; radiation (7.5 Gy three times) and Plavix 60 mg/kg/day combined", "value": 16, "unit": "days"},
      {"measurement": "TGD more than radiation alone", "setting": "[2]; radiation and Plavix combined versus radiation alone", "value": 4, "unit": "days"},
      {"measurement": "U-87 clonogenic cell survival compared with Aggrenox results", "setting": "U-87 glioblastoma cells [3]", "value": "exaggerated"},
      {"measurement": "A-549 cell proliferation", "setting": "[4]; [6]", "value": "even more drastically inhibited"},
      {"measurement": "cell proliferation (A-549)", "setting": "[4]; lowest concentration (25 μM)", "value": "did not significantly affect cell proliferation"},
      {"measurement": "dose response of tumor growth delay", "setting": "U-87 tumor; 0.135, 0.180, 0.225 mg/ml in drinking water", "value": "A dose response was noted"},
      {"measurement": "tumor growth delay", "setting": "U-87 tumor; highest concentration 0.225 mg/ml in drinking water, approx. 25 mg/kg/day oral", "value": "much more dramatic"},
      {"measurement": "tumor growth delay", "setting": "U-87 tumor; lowest concentration 0.135 mg/ml in drinking water, approx. 15 mg/kg/day oral", "value": "small growth delay"},
      {"measurement": "A-549 clonogenic cell survival compared with Aggrenox results", "setting": "[5]", "value": "exaggerated"}
    ]}
  ]
}
